Series [1] deals with acetic acid-induced colitis in rats. In words: Prevention of acetic acid-induced colitis in a rat model. Type of series: in vivo, Sprague-Dawley rats. The following applies: DFO 20 mg/kg 30 minutes before 4% acetic acid (FIG. 1). The procedure: Induction of colitis. Male Sprague-Dawley rats (250-350 g) were anesthetized with sodium pentobarbital, 55 mg/kg intraperitoneally. The abdomen was shaved and prepared for surgery. A midline incision was made, and the cecum and proximal colon were exteriorized. A reversible suture was placed at the junction of the cecum and proximal colon. The colon was rinsed with saline (10 ml), and the fluid and intestinal contents were gently expressed out the rectum. A gum-based rectal plug was inserted. The compound of interest, or distilled water in the control animals (2 ml), was injected intracolonically just distal to the ligature. The cecum and proximal colon were returned to the abdominal cavity; the compound was allowed to remain in the gut for 30 min. Then, the cecum and proximal colon were exteriorized again. The rectal plug was removed, and the drug was gently expressed out of the colon. […] The entire length of the colon was removed and assessed for damage both densitometrically and biochemically.
Quantitation of acetic acid-induced colitis. Gross damage was quantitated using Photoshop-based image analysis (version 5.0, Adobe Systems, Mountain View, Calif., USA) on an Apple iMac computer. […] The cursor was then placed on the histogram, the color range determined in an earlier step was selected, and the number of pixels encompassing that range and the percent damage were quantitated automatically.

Series [2] can be described thus: Concentration of DFT analogs in rat plasma and cerebrospinal fluid after PO or SC dose. Type of series: in vivo, Sprague-Dawley rats. The settings on record: rats, PO 300 μmol/kg, monosodium salt. How it is done:
Adult male Sprague-Dawley rats (450-500 g) were used. The rats were not fasted. A sample solution of a monosodium salt of (S)-4′-(HO)-DADFT-norPE (III-A) or (S)-4′-(HO)-DADFT-PE (IV-A) was administered to the rats at an oral or subcutaneous dose of 300 μmol/kg. Concentrations of the DFT analogs in the plasma and cerebrospinal fluid of the rats were measured at 0.5 hour, 1 hour, 2 hours, 4 hours, and 8 hours post administration.

Series [3] can be described thus: Concentration of DFT analogs in rat plasma and eyes after SC dose, rats perfused with saline. Type of series: in vivo. The settings on record: SC 300 μmol/kg, one hour post dose; for concentration at 1 h: rat, plasma, rats perfused with saline; for Concentration in the eye: rats perfused with saline (about 100 ml, 5 minutes), entire eye. The procedure: Rats were anesthetized with ketamine/xylazine about 50 minutes after dosing. Blood of the rats was collected via cardiac puncture into vacutainer tubes containing buffered sodium citrate one hour post dose. The rats' abdomen and thorax were opened, and a portion of the sternum/ribs was removed. A 19-gauge needle was inserted into the left ventricle of the rats, and the right atrium was cut. About 100 ml of saline was perfused transcardially for five minutes. The perfusion was stopped, and the rats' eyes were removed. Any extraneous tissue was trimmed and discarded. The eyes were frozen. The entire eye was then processed and assessed for the concentration of the DFT analog. The whole blood was centrifuged, and the plasma was separated and frozen until the concentration of the DFT analog was determined.

Series [4] is described as follows: Concentration of DFT analogs in rat plasma and eyes after SC dose, rats not perfused. Type of series: in vivo. The settings on record: non-perfused rats, SC 300 μmol/kg, one hour post dose; for Concentration in the eye: entire eye; for concentration at 1 h: rat, plasma. How it is done:
Rats were anesthetized with ketamine/xylazine about 50 minutes after dosing. Blood of the rats was collected via cardiac puncture into vacutainer tubes containing buffered sodium citrate one hour post dose. The rats' eyes were removed. Any extraneous tissue was trimmed and discarded. The eyes were frozen. The entire eye was then processed and assessed for the concentration of the DFT analog. The whole blood was centrifuged, and the plasma was separated and frozen until the concentration of the DFT analog was determined.

Series [5] is described as follows: Apparent partition coefficient (LogPapp) of DFT analogs. Type of series: physicochemical.
Where [6] appears, read: male, Sprague-Dawley, rat, cerebrospinal fluid, read-out: Concentration in cerebrospinal fluid.
Setting [7] is: male, Sprague-Dawley, rat, plasma, read-out: Concentration in plasma.
[8] abbreviates: male, Sprague-Dawley, rat, plasma, 1 h, read-out: Concentration in plasma.
The mark [9] stands for this setting: male, Sprague-Dawley, rat, plasma, 2 h.
Setting [10] is: male, Sprague-Dawley, rat, plasma, 4 h, read-out: Concentration in plasma.

Read-outs that look alike come from different tables or passages of the source.

As to `CC(=O)N(O)CCCCCNC(=O)CCC(=O)N(O)CCCCCNC(=O)CCC(=O)N(O)CCCCCN` [DFO, desferrioxamine], the “Prevention of acetic acid-induced colitis” value in series [1] was “prevent acetic acid-induced colitis in rats”.

On to `COCCOCCOc1ccc(C2=N[C@@](C)(C(=O)O)CS2)c(O)c1` [III-A, (S)-4′-(HO)-DADFT-norPE], for which the concentration at 0.5 h was determined as 8.07 ± 3.09 µM in series [2] (setting [6]) and 424 ± 60 µM in series [2] (setting [7]). The concentration at 1 h in series [2] (male, Sprague-Dawley, rat, cerebrospinal fluid, 1 h, read-out: Concentration in cerebrospinal fluid) stood at 5.7 ± 2.74 µM; in series [2] (setting [8]), 219 ± 19 µM; in series [3], 218 ± 51 µM; in series [4], 218 ± 16 µM. Also, the concentration at 4 h in series [2] (male, Sprague-Dawley, rat, cerebrospinal fluid, 4 h, read-out: Concentration in cerebrospinal fluid) was found to be 0 µM; in series [2] (setting [10]), 2 ± 0.4 µM. Moreover, the concentration at 8 h in series [2] (male, Sprague-Dawley, rat, cerebrospinal fluid, 8 h) was determined as 0 nM. Further, the concentration at 2 h in series [2] (setting [9]) turned out to be 30 ± 5 µM. For the same compound, the “Concentration in cerebrospinal fluid” value in series [2] (2 h) is recorded as 2.32 (only 1 out 3 animals μM. Further, the Concentration in plasma result in series [2] (8 h) was “trace”. Also, the “Concentration in the eye” value in series [3] was 17.2 ± 5.5 nmol/g wet weight of the eye; in series [4], 25.8 ± 6.0 nmol/g wet weight of the eye. In addition, the LogPapp in series [5] is listed as −0.89.

Turning to `COCCOCCOCCOc1ccc(C2=N[C@@](C)(C(=O)O)CS2)c(O)c1` [IV-A, (S)-4′-(HO)-DADFT-PE], the results for the concentration at 0.5 h in series [2] (setting [6]) and in series [2] (setting [7]) were 2.14 ± 1.01 µM and 142 ± 57 µM, respectively. Moreover, in series [2] (setting [8]), the concentration at 1 h amounted to 64 ± 7 µM. For the same compound, in series [2] (setting [9]), the concentration at 2 h was found to be 32 ± 20 µM. Besides, the concentration at 4 h in series [2] (setting [10]) stood at 2 ± 0.5 µM. The “Concentration in cerebrospinal fluid” value in series [2] (1 h), in series [2] (2 h), in series [2] (4 h) and in series [2] (8 h) was “trace” in each case. Moreover, the Concentration in plasma result in series [2] (8 h) was “trace”. Moreover, in series [5], the LogPapp was −1.10.

On to `COc1ccc(C2=N[C@@H](C(=O)O)CS2)c(O)c1` [V-A], for which, in series [3], the concentration at 1 h is 663 ± 42 µM and the “Concentration in the eye” value was 29.7 ± 4.3 nmol/g wet weight of the eye. In series [4], the “Concentration in the eye” value is 37.8 ± 4.3 nmol/g wet weight of the eye and the concentration at 1 h is 701 ± 32 µM. Further, the LogPapp in series [5] was −0.89.
